Measured values: patent publication US20260226073A1 (AURIGENE ONCOLOGY LIMITED, priority 2023, published 2026)
pEC50, pIC50: −log10 of the molar value.

Columns and labels:
[1] = system: NFAT signaling pathway in Jurkat NFAT reporter cells; assay: Jurkat NFAT reporter assay; assay type: cell-based; details: Homo sapiens, 30 min with compound, then soluble anti-human CD3/CD28 antibody for 6 hours, luciferase readout, read-out: EC50 (Group)
Procedure: A human T lymphocyte Jurkat reporter cell line was further used to assess activation of the nuclear factor of activated T-cells (NFAT) signaling pathway by Cbl-b inhibitors. The reporter cell line is a genetically engineered Jurkat T cell line that expresses a luciferase reporter driven by an NFAT-response element (NFAT-RE). The Cbl-b inhibitor was incubated with 1×10^5 Jurkat NFAT reporter cells per well for 30 minutes. Subsequently, cells were stimulated with soluble anti-human CD3/CD28 antibody for 6 hours resulting in NFAT-RE-mediated luminescence. The bioluminescent signal is detected and quantified using Bio-Glo™ Luciferase Assay System. Readouts were reported as fold change over baseline. Here, baseline was the measurement obtained from Jurkat NFAT reporter cells stimulated with anti-CD3 antibody and anti-CD28 antibody, where the cells were not incubated with a Cbl-b inhibitor.

[2] = target: T1, human recombinant CBL-b (human Biotin CBL-b recombinant protein a.a. 39-426) (Homo sapiens, UniProt Q13191); assay: Biochemical assay for CBL-b inhibition (ligand displacement TR-FRET); assay type: binding; details: 50 nM CBL-b, 0.3 μM Bodipy FL-Probe, read-out: IC50 (CBL-b inhibition, group)
T1 construct: human Biotin CBL-b recombinant protein a.a; 39-426; Biotin (biotinylated); made in house
Procedure, shortened: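 Biotinylated CBL-b (a.a. 39-426, 50 nM final) pre-incubated with compound 60 min at RT in HEPES/NaCl/Triton/BSA/TCEP buffer, then Bodipy FL probe (0.3 μM final) 60 min, then terbium-streptavidin 60 min. TR-FRET read at 665/615 nm; IC50 and % max inhibition from sigmoidal fits.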

T1 sequence (Q13191 39-426): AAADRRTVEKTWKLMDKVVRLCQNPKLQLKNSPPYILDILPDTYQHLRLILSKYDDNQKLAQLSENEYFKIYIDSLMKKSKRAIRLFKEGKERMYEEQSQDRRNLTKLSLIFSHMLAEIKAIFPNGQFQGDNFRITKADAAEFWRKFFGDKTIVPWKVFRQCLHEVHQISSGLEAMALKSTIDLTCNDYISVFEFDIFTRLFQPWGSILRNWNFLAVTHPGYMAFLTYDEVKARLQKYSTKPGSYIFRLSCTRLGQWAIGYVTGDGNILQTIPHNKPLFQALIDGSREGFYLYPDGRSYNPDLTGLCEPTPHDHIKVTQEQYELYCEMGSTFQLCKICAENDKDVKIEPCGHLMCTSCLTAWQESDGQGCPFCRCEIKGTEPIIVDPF

Row | Structure (SMILES) | pEC50 [1] | pIC50 [2]
1 | C[C@H]1CCCN(Cc2cc(N3Cc4ccc(C5(Cc6nncn6C)COC5)cc4C3=O)cc(C(F)(F)F)n2)C1 [Compound 17, (S)-6-(3-((4-Methyl-4H-1,2,4-triazol-3-yl)methyl)oxetan-3-yl)-2-(2-((3-methyl-piperidin-1-yl)methyl)-6-(trifluoromethyl)pyridin-4-yl)isoindolin-1-one] | 5.00 to 6.00 | 5.30 to 6.52
2 | Cc1cc(CNCC2CC2)cc(N2Cc3ccc(C4(Cc5nncn5C)COC4)cc3C2=O)c1 [Compound 18, 2-(3-(((Cyclopropylmethyl)amino)methyl)-5-methylphenyl)-6-(3-((4-methyl-4H-1,2,4-triazol-3-yl)methyl)oxetan-3-yl)isoindolin-1-one] | 5.00 to 6.00 | > 7.10
3 | Cc1cc(CNCCC(F)(F)F)cc(N2Cc3ccc(C4(Cc5nncn5C)COC4)cc3C2=O)c1 [Compound 19, 6-(3-((4-Methyl-4H-1,2,4-triazol-3-yl)methyl)oxetan-3-yl)-2-(3-methyl-5-(((3,3,3-trifluoropropyl)amino)methyl)phenyl)isoindolin-1-one] | 6.00 to 6.52 | > 7.10
4 | Cc1cc(CNCC2CC2(F)F)cc(N2Cc3ccc(C4(Cc5nncn5C)COC4)cc3C2=O)c1 (stereo not shown) [Compound 20, 2-(3-((((2,2-Difluorocyclopropyl)methyl)amino)methyl)-5-methylphenyl)-6-(3-((4-methyl-4H-1,2,4-triazol-3-yl)methyl)oxetan-3-yl)isoindolin-1-one] | 6.00 to 6.52 | 6.52 to 7.10
5 | Cc1cc(N2Cc3ccc(C4(Cc5nncn5C)COC4)cc3C2=O)cc(CN2CCC[C@H](C)C2)n1 [Compound 23, (S)-6-(3-((4-Methyl-4H-1,2,4-triazol-3-yl)methyl)oxetan-3-yl)-2-(2-methyl-6-((3-methylpiperidin-1-yl)methyl)pyridin-4-yl)isoindolin-1-one] | 5.00 to 6.00 | 6.52 to 7.10
6 | Cc1cc(CN2CCC[C@H](C)C2)cc(N2Cc3ccc(C4(Cc5nncn5C)COC4)cc3C2=O)n1 [Compound 26, (S)-2-(6-Methyl-4-((3-methylpiperidin-1-yl)methyl)pyridin-2-yl)-6-(3-((4-methyl-4H-1,2,4-triazol-3-yl)methyl)oxetan-3-yl)isoindolin-1-one] | > 6.52 | > 7.10
7 | Cn1cnnc1CC1(c2ccc3c(c2)C(=O)N(c2cc(CN4CCC[C@H](C(F)(F)F)C4)cc(C(F)(F)F)n2)C3)COC1 [Compound 27, (S)-6-(3-((4-Methyl-4H-1,2,4-triazol-3-yl)methyl)oxetan-3-yl)-2-(6-(trifluoro-methyl)-4-((3-(trifluoromethyl)piperidin-1-yl)methyl)pyridin-2-yl)isoindolin-1-one] | > 6.52 | > 7.10
8 | CC1CN(Cc2cc(N3Cc4ccc(C5(Cc6nncn6C)COC5)cc4C3=O)nc(C(F)(F)F)c2)CCC1(F)F (stereo not shown) [Compound 28, 2-(4-((4,4-Difluoro-3-methylpiperidin-1-yl)methyl)-6-(trifluoromethyl)pyridin-2-yl)-6-(3-((4-methyl-4H-1,2,4-triazol-3-yl)methyl)oxetan-3-yl)isoindolin-1-one] | 6.00 to 6.52 | 6.52 to 7.10
9 | Cn1cnnc1CC1(c2ccc3c(c2)C(=O)N(c2cc(CN4CCCC(C#N)C4)cc(C(F)(F)F)n2)C3)COC1 (stereo not shown) [Compound 29, 1-((2-(6-(3-((4-Methyl-4H-1,2,4-triazol-3-yl)methyl)oxetan-3-yl)-1-oxoisoindo-lin-2-yl)-6-(trifluoromethyl)pyridin-4-yl)methyl)piperidine-3-carbonitrile] | 5.00 to 6.00 | 6.52 to 7.10
10 | Cn1cnnc1CC1(c2ccc3c(c2)C(=O)N(c2cc(CN4CCC[C@H](O)C4)cc(C(F)(F)F)n2)C3)COC1 [Compound 30, (S)-2-(4-((3-Hydroxypiperidin-1-yl)methyl)-6-(trifluoromethyl)pyridin-2-yl)-6-(3-((4-methyl-4H-1,2,4-triazol-3-yl)methyl)oxetan-3-yl)isoindolin-1-one] | 5.00 to 6.00 | 5.30 to 6.52
11 | Cn1cnnc1CC1(c2ccc3c(c2)C(=O)N(c2cc(CN4CCc5ccccc5C4)cc(C(F)(F)F)n2)C3)COC1 [Compound 31, 2-(4-((3,4-Dihydroisoquinolin-2(1H)-yl)methyl)-6-(trifluoromethyl)pyridin-2-yl)-6-(3-((4-methyl-4H-1,2,4-triazol-3-yl)methyl)oxetan-3-yl)isoindolin-1-one] | 5.00 to 6.00 | 5.30 to 6.52
12 | Cn1cnnc1CC1(c2ccc3c(c2)C(=O)N(c2cc(CN4CCCC(F)C4)cc(C(F)(F)F)n2)C3)COC1 (stereo not shown) [Compound 33, 2-(4-((3-Fluoropiperidin-1-yl)methyl)-6-(trifluoromethyl)pyridin-2-yl)-6-(3-((4-methyl-4H-1,2,4-triazol-3-yl)methyl)oxetan-3-yl)isoindolin-1-one] | 5.00 to 6.00 | 5.30 to 6.52
13 | C[C@H]1CCN(Cc2cc(N3Cc4ccc(C5(Cc6nncn6C)COC5)cc4C3=O)nc(C(F)(F)F)c2)C1 [Compound 34, (S)-6-(3-((4-Methyl-4H-1,2,4-triazol-3-yl)methyl)oxetan-3-yl)-2-(4-((3-methyl-pyrrolidin-1-yl)methyl)-6-(trifluoromethyl)pyridin-2-yl)isoindolin-1-one] | 6.00 to 6.52 | 6.52 to 7.10
14 | Cn1cnnc1CC1(c2ccc3c(c2)C(=O)N(c2cc(CN4CCCC(CO)C4)cc(C(F)(F)F)n2)C3)COC1 (stereo not shown) [Compound 37, 2-(4-((3-(Hydroxymethyl)piperidin-1-yl)methyl)-6-(trifluoromethyl)pyridin-2-yl)-6-(3-((4-methyl-4H-1,2,4-triazol-3-yl)methyl)oxetan-3-yl)isoindolin-1-one] | 5.00 to 6.00 | 6.52 to 7.10
15 | C[C@H]1C[C@H](C)CN(Cc2cc(N3Cc4ccc(C5(Cc6nncn6C)COC5)cc4C3=O)nc(C(F)(F)F)c2)C1 [Compound 42, 2-(4-(((3S,5S)-3,5-Dimethylpiperidin-1-yl)methyl)-6-(trifluoromethyl)pyridin-2-yl)-6-(3-((4-methyl-4H-1,2,4-triazol-3-yl)methyl)oxetan-3-yl)isoindolin-1-one] | 6.00 to 6.52 | > 7.10
16 | Cn1cnnc1CC1(c2ccc3c(c2)C(=O)N(c2cc(CN4CCC5(CC4)CC5)cc(C(F)(F)F)n2)C3)COC1 [Compound 44, 2-(4-((6-Azaspiro[2.5]octan-6-yl)methyl)-6-(trifluoromethyl)pyridin-2-yl)-6-(3-((4-methyl-4H-1,2,4-triazol-3-yl)methyl)oxetan-3-yl)isoindolin-1-one] | 6.00 to 6.52 | 6.52 to 7.10
17 | CC1CCCCN1Cc1cc(N2Cc3ccc(C4(Cc5nncn5C)COC4)cc3C2=O)nc(C(F)(F)F)c1 (stereo not shown) [Compound 45, 6-(3-((4-Methyl-4H-1,2,4-triazol-3-yl)methyl)oxetan-3-yl)-2-(4-((2-methyl-piperidin-1-yl)methyl)-6-(trifluoromethyl)pyridin-2-yl)isoindolin-1-one] | 5.00 to 6.00 | 5.30 to 6.52
18 | C[C@@H]1CN(Cc2cc(N3Cc4ccc(C5(Cc6nncn6C)COC5)cc4C3=O)nc(C(F)(F)F)c2)CCO1 [Compound 46, (R)-6-(3-((4-Methyl-4H-1,2,4-triazol-3-yl)methyl)oxetan-3-yl)-2-(4-((2-methyl-morpholino)methyl)-6-(trifluoromethyl)pyridin-2-yl)isoindolin-1-one] | 5.00 to 6.00 | 5.30 to 6.52
19 | Cn1cnnc1CC1(c2ccc3c(c2)C(=O)N(c2cc(CN4CCCC(F)(F)C4)cc(C(F)(F)F)n2)C3)COC1 [Compound 47, 2-(4-((3,3-Difluoropiperidin-1-yl)methyl)-6-(trifluoromethyl)pyridin-2-yl)-6-(3-((4-methyl-4H-1,2,4-triazol-3-yl)methyl)oxetan-3-yl)isoindolin-1-one] | 5.00 to 6.00 | 6.52 to 7.10
20 | Cn1cnnc1CC1(c2ccc3c(c2)C(=O)N(c2cc(CN4CCC(F)(F)CC4)cc(C(F)(F)F)n2)C3)COC1 [Compound 48, 2-(4-((4,4-Difluoropiperidin-1-yl)methyl)-6-(trifluoromethyl)pyridin-2-yl)-6-(3-((4-methyl-4H-1,2,4-triazol-3-yl)methyl)oxetan-3-yl)isoindolin-1-one] | 6.00 to 6.52 | 6.52 to 7.10
21 | C[C@H]1CCCN(Cc2cc(CC3CC3)cc(N3Cc4ccc(C5(Cc6nncn6C)COC5)cc4C3=O)c2)C1 [Compound 49, (S)-2-(3-(Cyclopropylmethyl)-5-((3-methylpiperidin-1-yl)methyl)phenyl)-6-(3-((4-methyl-4H-1,2,4-triazol-3-yl)methyl)oxetan-3-yl)isoindolin-1-one] | 6.00 to 6.52 | 6.52 to 7.10
22 | Cn1cnnc1CC1(c2ccc3c(c2)C(=O)N(c2cc(CN4CC5(CCC5)C4)cc(C(F)(F)F)n2)C3)COC1 [Compound 51, 2-(4-((2-Azaspiro[3.3]heptan-2-yl)methyl)-6-(trifluoromethyl)pyridin-2-yl)-6-(3-((4-methyl-4H-1,2,4-triazol-3-yl)methyl)oxetan-3-yl)isoindolin-1-one] | 5.00 to 6.00 | 5.30 to 6.52
23 | C[C@H]1CCCN(Cc2cc(Cl)nc(N3Cc4ccc([C@]5(c6nncn6C)C[C@@H](C)C5)cc4C3=O)c2)C1 [Compound 58, 2-(6-Chloro-4-(((S)-3-methylpiperidin-1-yl)methyl)pyridin-2-yl)-6-((1s,3R)-3-methyl-1-(4-methyl-4H-1,2,4-triazol-3-yl)cyclobutyl)isoindolin-1-one] | 5.00 to 6.00 | 5.30 to 6.52
